# Results from the supplement of paper PMC4862054.
# Key:
# Conditions in all cases: incubation time: 72 h
# BT-474 [1] = assay: normalised response (% of control), CellTox Green; higher = less cell death (100 = DMSO, 0 = benzethonium chloride kill control)
# How it was run: (§1)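 Each entry is the normalised signal at a single concentration within a series. The series comprised 5 concentrations in 10-fold steps over a compound-specific 10,000-fold range, placed in 384-well plates into which breast cancer cell lines were seeded as 20 µl suspension and incubated 72 h. CellTox Green (485/520 nm) fluorescence and then CellTiter-Glo luminescence were read, with signals normalised per plate to 0.1 % DMSO (100) and a positive kill control (0).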
# BT-549 [2] = assay: as above
# How it was run: as §1
# CAL-120 [3] = assay: as above
# How it was run: as §1
# CAL-148 [4] = assay: as above
# How it was run: as §1
# CAL-51 [5] = assay: as above
# How it was run: as §1
# CAL-85-1 [6] = assay: as above
# How it was run: as §1
# DU-4475 [7] = assay: as above
# How it was run: as §1
# HCC1143 [8] = assay: as above
# How it was run: as §1
# HCC1599 [9] = assay: as above
# How it was run: as §1
# HCC1937 [10] = assay: as above
# How it was run: as §1
# HDQ-P1 [11] = assay: as above
# How it was run: as §1
# Hs578T [12] = assay: as above
# How it was run: as §1
# MCF-10A [13] = assay: as above
# How it was run: as §1
# MDA-MB-231 [14] = assay: as above
# How it was run: as §1
# MDA-MB-436 [15] = assay: as above
# How it was run: as §1
# MDA-MB-453 [16] = assay: as above
# How it was run: as §1
# MDA-MB-468 [17] = assay: as above
# How it was run: as §1
# MFM-223 [18] = assay: as above
# How it was run: as §1
# BT-474 [19] = assay: normalised response (% of control), CellTiter-Glo; higher = more viable cells (100 = DMSO, 0 = benzethonium chloride kill control)
# Method: (§2)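 DSRT, 72 h incubation, CellTox Green / CellTiter-Glo readout. Signal is normalised to DMSO and benzethonium chloride controls. Value is the normalised response at dose 3.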
# BT-549 [20] = assay: as above
# Method: as §2
# CAL-120 [21] = assay: as above
# Method: as §2
# CAL-148 [22] = assay: as above
# Method: as §2
# CAL-51 [23] = assay: as above
# Method: as §2
# CAL-85-1 [24] = assay: as above
# Method: as §2
# DU-4475 [25] = assay: as above
# Method: as §2
# HCC1143 [26] = assay: as above
# Method: as §2
# HCC1599 [27] = assay: as above
# Method: as §2
# HCC1937 [28] = assay: as above
# Method: as §2
# HDQ-P1 [29] = assay: as above
# Method: as §2
# Hs578T [30] = assay: as above
# Method: as §2
# MCF-10A [31] = assay: as above
# Method: as §2
# MDA-MB-231 [32] = assay: as above
# Method: as §2
# MDA-MB-436 [33] = assay: as above
# Method: as §2
# MDA-MB-453 [34] = assay: as above
# Method: as §2
# MDA-MB-468 [35] = assay: as above
# Method: as §2
# MFM-223 [36] = assay: as above
# Method: as §2
# SK-BR-3 = assay: as above
# Method: as §2
Structure (SMILES),normalised response (BT-474 [1]),normalised response (BT-549 [2]),normalised response (CAL-120 [3]),normalised response (CAL-148 [4]),normalised response (CAL-51 [5]),normalised response (CAL-85-1 [6]),normalised response (DU-4475 [7]),normalised response (HCC1143 [8]),normalised response (HCC1599 [9]),normalised response (HCC1937 [10]),normalised response (HDQ-P1 [11]),normalised response (Hs578T [12]),normalised response (MCF-10A [13]),normalised response (MDA-MB-231 [14]),normalised response (MDA-MB-436 [15]),normalised response (MDA-MB-453 [16]),normalised response (MDA-MB-468 [17]),normalised response (MFM-223 [18]),normalised response (BT-474 [19]),normalised response (BT-549 [20]),normalised response (CAL-120 [21]),normalised response (CAL-148 [22]),normalised response (CAL-51 [23]),normalised response (CAL-85-1 [24]),normalised response (DU-4475 [25]),normalised response (HCC1143 [26]),normalised response (HCC1599 [27]),normalised response (HCC1937 [28]),normalised response (HDQ-P1 [29]),normalised response (Hs578T [30]),normalised response (MCF-10A [31]),normalised response (MDA-MB-231 [32]),normalised response (MDA-MB-436 [33]),normalised response (MDA-MB-453 [34]),normalised response (MDA-MB-468 [35]),normalised response (MFM-223 [36]),normalised response (SK-BR-3)
CC[C@]1(O)C[C@H]2CN(CCc3c([nH]c4ccccc34)[C@@](C(=O)OC)(c3cc4c(cc3OC)N(C=O)[C@H]3[C@@](O)(C(=O)OC)[C@H](OC(C)=O)[C@]5(CC)C=CCN6CC[C@]43[C@@H]65)C2)C1 [Vincristine] (10 nM),76.7%,77.1%,93.9%,71.5%,73.2%,45%,98.7%,98.8%,90.7%,93.3%,44.8%,88.5%,51.6%,53.4%,56%,87.5%,-5.1%,94.7%,71%,38.2%,66.8%,64.6%,86.8%,30.6%,86.3%,53.5%,63.5%,75.7%,71%,82.6%,60.5%,76.7%,70.8%,70.6%,20.9%,90.8%,17.8%
C[C@]12CC[C@H](O)CC1=CC[C@@H]1[C@@H]2CC[C@]2(C)C(c3cccnc3)=CC[C@@H]12 [Abiraterone] (50 nM),100%,96.5%,101%,106%,105%,95%,101%,109%,110%,116%,111%,107%,63.7%,58%,96.5%,104%,128%,108%,104%,101%,106%,108%,81.5%,105%,107%,104%,124%,95.1%,100%,104%,99.8%,103%,99.7%,99.7%,101%,105%,103%
O=C1NC(=O)[C@@H](c2cn3c4c(cccc24)CCC3)[C@@H]1c1c[nH]c2ccccc12 [Tivantinib] (10 nM),97.8%,104%,103%,78.8%,102%,102%,100%,105%,103%,106%,109%,110%,84.5%,105%,90.1%,106%,131%,98.9%,104%,98.3%,96.3%,98.4%,106%,99.2%,104%,97.8%,105%,97.6%,100%,92.6%,103%,103%,102%,85%,99.6%,99.6%,99.4%
CC(C)c1c(C(=O)Nc2ccccc2)c(-c2ccccc2)c(-c2ccc(F)cc2)n1CC[C@@H](O)C[C@@H](O)CC(=O)O [Atorvastatin] (100 nM),103%,98.1%,98.4%,80.9%,109%,94.1%,103%,109%,88.1%,81.6%,86.4%,93.4%,–,105%,109%,99.2%,120%,98%,94.8%,94%,103%,108%,103%,103%,98.6%,103%,105%,102%,98%,102%,98.4%,97.5%,91.5%,111%,93.8%,98.9%,98.9%
O=C(O)CCCc1ccc(N(CCCl)CCCl)cc1 [Chlorambucil] (100 nM),101%,101%,92.9%,–,85.3%,94.9%,102%,94.9%,99%,98.2%,107%,105%,101%,102%,84.8%,102%,118%,98.8%,98.7%,108%,96.6%,107%,79.5%,105%,104%,103%,100%,94%,103%,102%,99.9%,106%,99.3%,104%,106%,98.6%,106%
COc1ccccc1S(=O)(=O)Nc1ccc2c(c1)CN(C)C(=O)N2 [PFI-1] (100 nM),105%,118%,106%,–,102%,115%,110%,82.6%,111%,51.5%,78.4%,96.8%,92.9%,123%,79.4%,115%,125%,106%,97.4%,99.4%,106%,105%,79%,96.6%,100%,100%,87.7%,91.4%,94.5%,99.6%,111%,99.5%,104%,105%,96.8%,104%,105%
